Data: patent US20200179319A1, “PHARMACEUTICAL FORMULATIONS AND THEIR USE” (Signum Biosciences, Inc., priority 2016, published 2020)

Tests used:
Assay type in all cases: physicochemical
[1] = Stability Study 1: storage stability of a formulation comprising the disodium salt, HPLC; details: 25° C., heading 30° C.; for % weight in formulation after 1 month: after 1 month storage; for % weight in formulation after 3 months: after 3 months storage; for % weight in formulation after 6 months: after 6 months storage; for % weight in formulation after 9 months: after 9 months storage; for Initial (% weight of formulation): formulation comprising the disodium salt
Description: The stability of a formulation comprising the disodium salt of […] In each case, the percentage of 4-(((R)-1-carboxy-2-(((2E,6E)-3,7,11-trimethyldodeca-2,6,10-trien-1-yl)thio)ethyl)amino)-4-oxobutanoic acid remaining at each time point was determined by use of HPLC.

[2] = Stability Study 2 conducted at 5° C.: storage stability of a formulation comprising the disodium salt, HPLC; details: for weight percentage of the component, 1 months: 1 month at 5° C.; for weight percentage of the component, 2 months: 2 months at 5° C.; for weight percentage of the component, 3 months: 3 months at 5° C.; for weight percentage of the component, 6 months: 6 months at 5° C.; for weight percentage of the component, 9 months: 9 months at 5° C.; for weight percentage of the component, 12 months: 12 months at 5° C.; for weight percentage of the component, 18 months: 18 months at 5° C.; for weight percentage of the component, 24 months: 24 months at 5° C.; for weight percentage of the component, Initial: storage at 5° C.
Description: The stability of a formulation comprising the disodium salt of 4-(((R)-1-carboxy-2-(((2E,6E)-3,7,11-trimethyldodeca-2,6,10-trien-1-yl)thio)ethyl)amino)-4-oxobutanoic acid was determined after storage at 5° C. for a period of 1 month, 2 months, 3 months, 6 months, 9 months, 12 months, 18 months, and 24 months. In each case, the percentage of 4-(((R)-1-carboxy-2-(((2E,6E)-3,7,11-trimethyldodeca-2,6,10-trien-1-yl)thio)ethyl)amino)-4-oxobutanoic acid remaining at each time point was determined by use of HPLC. Each of the percentages in the table below are expressed at the weight percentage of the component as compared to the total weight of the composition.

[3] = Screening Study (Example 5): sulfoxide formed in API solution with each agent, HPLC; details: for (% area sulfoxide for each agent/% area sulfoxide in Blank) / Average % area sulfoxide for 3 runs per agent: 24 hours exposed to air at room temperature, not protected from light; for % area sulfoxide relative to % area Control: Control: no agent, stored at 5° C. and protected from light; for Average % area sulfoxide for 3 runs per agent: pH 7.4 to 7.5 buffer, API disodium salt solution plus agent
Description: A buffer solution was prepared by adding 0.72 g of Na2HPO4, 0.24 g KH2PO4 and 500 mL of deionized water into a container and mixing. The pH of the mixture was adjusted to 7.4 to 7.5 using NaOH and H3PO4.
(§1) A solution of each agent in the table below was prepared by adding 500 mg or each agent into a 25 mL volumetric flask and filling the flask to volume by the addition of the prepared buffer solution.
A 6% solution of API was prepared by adding 3.0 g the disodium salt of 4-(((R)-1-carboxy-2-(((2E,6E)-3,7,11-trimethyldodeca-2,6,10-trien-1-yl)thio)ethyl)amino)-4-oxobutanoic acid to a 50 mL volumetric flask filling the flask to volume by the addition of argon-sparged methanol, followed by mixing.
(§2) A screen was performed for each agent as follows: (1) 2.5 mL of the stock solution of API and 2.5 mL of each agent was added into scintillation vial, the vial was capped and the contents were mixed (repeated three times for each agent); and (2) allowing each resulting mixture to sit for 24 hours exposed to air at room temperature and not protected from light. A blank solution was prepared (3×) by adding buffer solution into the 100 mL volumetric flask in place of the agent and was stored under the same conditions as the other samples, 24 hours exposed to air at room temperature and not protected from light. After 24 hours, the contents of each vial were transferred to a 100 mL volumetric flask and each volumetric flask was filled to volume by the addition of methanol, and an aliquot of each mixture was removed and analyzed by HPLC.
(§3) The area of the sulfoxide of 4-(((R)-1-carboxy-2-(((2E,6E)-3,7,11-trimethyldodeca-2,6,10-trien-1-yl)thio)ethyl)amino)-4-oxobutanoic acid produced in each solution was calculated as follows: % area sulfoxide=Rsulfoxide/(Rparent+Rsulfoxide), wherein Rsuffoxide=the area under the response of the sulfoxide in the HPLC trace, and Rparent=the area under the response of 4-(((R)-1-carboxy-2-(((2E,6E)-3,7,11-trimethyldodeca-2,6,10-trien-1-yl)thio)ethyl)amino)-4-oxobutanoic acid in the HPLC trace. The control sample in Table 8 contained no agent, was stored at 5° C. and protected from light.

[4] = Screening Study (Example 3): sulfoxide formed in API solution with each agent, HPLC; details: 24 hours exposed to air at room temperature, not protected from light; for Average % area sulfoxide for 3 runs per agent: API disodium salt solution plus agent
Description: A buffer solution was prepared by adding 0.72 g of Na2HPO4, 0.24 g KH2PO4 and 500 mL of deionized water into a container and mixing.
as §1
A 6% solution of API was prepared by adding 3.0 g the disodium salt of 4-(((R)-1-carboxy-2-(((2E,6E)-3,7,11-trimethyldodeca-2,6,10-trien-1-yl)thio)ethyl)amino)-4-oxobutanoic acid to a 50 mL volumetric flask and filling the flask to volume by the addition of methanol, followed by mixing.
as §2, with “a 100 mL volumetric flask” for “scintillation vial, the vial was capped”, “agent.” for “agent and was stored under the same conditions as the other samples, 24 hours exposed to air at room temperature and not protected from light.”, “hours,” for “hours, the contents of each vial were transferred to a 100 mL volumetric flask and”
as §3, with “trace.” for “trace. The control sample in Table 8 contained no agent, was stored at 5° C. and protected from light.”

[5] = API stock in argon-sparged methanol

SMILES | % weight in formulation after 1 month [1] | % weight in formulation after 3 months [1] | % weight in formulation after 6 months [1] | % weight in formulation after 9 months [1] | Initial (% weight of formulation) [1] | weight percentage of the component, 1 months [2] | weight percentage of the component, 2 months [2] | weight percentage of the component, 3 months [2] | weight percentage of the component, 6 months [2] | weight percentage of the component, 9 months [2] | weight percentage of the component, 12 months [2] | weight percentage of the component, 18 months [2] | weight percentage of the component, 24 months [2] | weight percentage of the component, Initial [2] | (% area sulfoxide for each agent/% area sulfoxide in Blank) [3, 5] | % area sulfoxide relative to % area Control [3] | Average % area sulfoxide for 3 runs per agent [3] | % area sulfoxide relative to % area Control [4] | (% area sulfoxide for each agent/% area sulfoxide in Blank) [4] | Average % area sulfoxide for 3 runs per agent [4] | other results
CC(=O)Oc1c(C)c(C)c2c(c1C)CCC(C)(CCC[C@H](C)CCC[C@H](C)CCCC(C)C)O2 (some centres unmarked) [Vitamin E acetate] |  |  |  |  |  |  |  |  |  |  |  |  |  |  | 1.01 | 0.208 | 1.167% |  |  |  | 
O=S([O-])CO.[Na+] [sodium hydroxymethylsulfinate] |  |  |  |  |  |  |  |  |  |  |  |  |  |  |  |  |  | 0.571 | 1.37 | 1.548% | 
O=S([O-])([O-])=S.[Na+].[Na+] [Sodium thiosulfate] |  |  |  |  |  |  |  |  |  |  |  |  |  |  |  | 0.158 | 1.117% | 0.055 | 0.92 | 1.032% | (% area sulfoxide for each agent/% area sulfoxide in Blank) [3]: 0.96
CC(C)=CCC/C(C)=C/CC/C(C)=C/C[S+]([O-])C[C@H](NC(=O)CCC(=O)O)C(=O)O (stereo partly drawn) [Sulfoxide of 4-(((R)-1-carboxy-2-(((2E,6E)-3,7,11-trimethyldodeca-2,6,10-trien-1-yl)thio)ethyl)amino)-4-oxobutanoic acid] | 0.031% | 0.113% | 0.053% | 0.134% | 0.037% | 0.039 weight percentage | 0.076 weight percentage | 0.112 weight percentage | 0.048 weight percentage | 0.049 weight percentage | 0.050 weight percentage | 0.052 weight percentage | 0.044 weight percentage | 0.037 weight percentage |  |  |  |  |  |  | 
O=C(CO)[C@@H](O)[C@H](O)[C@H](O)CO [Fructose] |  |  |  |  |  |  |  |  |  |  |  |  |  |  |  |  |  | 0.146 | About 1 | 1.123% | 

Further lines, with some results ahead:

% weight in formulation after 1 month [1] | % weight in formulation after 3 months [1] | % weight in formulation after 6 months [1] | % weight in formulation after 9 months [1] | Initial (% weight of formulation) [1] | weight percentage of the component, 1 months [2] | weight percentage of the component, 2 months [2] | weight percentage of the component, 3 months [2] | weight percentage of the component, 6 months [2] | weight percentage of the component, 9 months [2] | weight percentage of the component, 12 months [2] | weight percentage of the component, 18 months [2] | weight percentage of the component, 24 months [2] | weight percentage of the component, Initial [2] | (% area sulfoxide for each agent/% area sulfoxide in Blank) [3, 5] | % area sulfoxide relative to % area Control [3] | Average % area sulfoxide for 3 runs per agent [3] | SMILES | % area sulfoxide relative to % area Control [4] | (% area sulfoxide for each agent/% area sulfoxide in Blank) [4] | Average % area sulfoxide for 3 runs per agent [4] | other results
2.97% | 3.13% | 2.92% | 2.87% | 3.09% | 3.01 weight percentage | 3.00 weight percentage | 3.10 weight percentage | 3.04 weight percentage | 3.03 weight percentage | 3.06 weight percentage | 3.10 weight percentage | 3.05 weight percentage | 3.09 weight percentage |  |  |  | CC(C)=CCC/C(C)=C/CC/C(C)=C/CSC[C@H](NC(=O)CCC(=O)O)C(=O)O [4-(((R)-1-carboxy-2-(((2E,6E)-3,7,11-trimethyldodeca-2,6,10-trien-1-yl)thio)ethyl)amino)-4-oxobutanoic acid] |  |  |  | 
0.17% | 0.17% | 0.17% | 0.16% | 0.17% | 0.17 weight percentage | 0.17 weight percentage | 0.17 weight percentage | 0.18 weight percentage | 0.17 weight percentage | 0.17 weight percentage | 0.17 weight percentage | 0.15 weight percentage | 0.17 weight percentage |  |  |  | COC(=O)c1ccc(O)cc1 [Methylparaben] |  |  |  | 
 |  |  |  |  |  |  |  |  |  |  |  |  |  | 1.02 | 0.227 | 1.186% | Cc1cc(C(C)(C)C)c(O)c(C(C)(C)C)c1 [Butylated hydroxytoluene (BHT), Butylated hydroxytoluene] | 0.115 | 0.97 | 1.092% | 
0.033% | 0.034% | 0.032% | 0.033% | 0.034% | 0.032 weight percentage | 0.032 weight percentage | 0.033 weight percentage | 0.032 weight percentage | 0.033 weight percentage | 0.032 weight percentage | 0.033 weight percentage | 0.030 weight percentage | 0.034 weight percentage |  |  |  | CCCOC(=O)c1ccc(O)cc1 [Propylparaben] |  |  |  | 
 |  |  |  |  |  |  |  |  |  |  |  |  |  | 7.38 | 7.587 | 8.546% | CC(C)(C)c1cc(O)ccc1O [Tert-butylhydroquinone (TBHQ), Tert-butylhydroquinone] |  |  |  | 
 |  |  |  |  |  |  |  |  |  |  |  |  |  | 2.39 | 1.812 | 2.771% | O=C1O[C@H]([C@@H](O)CO)C(O)=C1O [Ascorbic acid] |  |  |  | 
